Assay results from patent US12503473B2, “Triazolopyrimidine compounds and their use in treating cancer” (Dizal (Jiangsu) Pharmaceutical Co., Ltd., priority 2018, dated 2025).

How the values were obtained:
[1] = biological target: T1, MCT4 (Homo sapiens, UniProt O15427); assay: cell-based
T1 sequence (O15427 1-465): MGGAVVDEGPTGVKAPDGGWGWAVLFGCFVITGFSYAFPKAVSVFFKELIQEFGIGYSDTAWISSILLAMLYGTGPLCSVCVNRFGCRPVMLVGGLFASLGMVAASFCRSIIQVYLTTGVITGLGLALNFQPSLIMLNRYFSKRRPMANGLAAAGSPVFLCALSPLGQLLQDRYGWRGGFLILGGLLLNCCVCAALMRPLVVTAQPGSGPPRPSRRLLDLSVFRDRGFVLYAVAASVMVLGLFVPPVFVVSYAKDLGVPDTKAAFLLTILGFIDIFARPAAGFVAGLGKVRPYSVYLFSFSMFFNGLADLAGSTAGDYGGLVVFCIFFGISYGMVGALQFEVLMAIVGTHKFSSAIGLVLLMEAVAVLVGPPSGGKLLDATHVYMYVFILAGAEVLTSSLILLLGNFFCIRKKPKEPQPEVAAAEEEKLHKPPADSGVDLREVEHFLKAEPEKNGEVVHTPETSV
Method: Cells were loaded with the pH sensitive dye BCECFAM(Invitrogen #B11150) before being washed to remove excess dye and seeded into the assay plates—directly onto the test compound—at a density of 15,000 cells/well (NCI—H358) or 30,000 cells/well (K562), in 30 μl HBSS with 1 mM [final] […] Assay plates were lidded and spun in a plate centrifuge at 170 g for 1 minute. Plates were then wrapped in foil and incubated in the dark for 1 hour at room temperature.
Following incubation with test compound, 10 μl of 25 mM Sodium-L-Lactate (Sigma #L7022) made up in HBSS with 1 mM [final] […] This addition was performed directly on the FLIPR Tetra platform (Molecular Devices) as part of a real-time kinetic read protocol. […] A percentage change from base-line was calculated for each test well and values normalised to control wells—treated with either DMSO (maximum assay signal) or chemistry related to that described in this patent (minimum assay signal)—before fitting concentration response curves to determine an IC50 value.

[2] = biological target: T1, MCT4; assay: Assay (a): lactate efflux from SK-Br-3 cells (lactate in media, 4 h); assay type: cell-based; parameters: a natively glycolytic human breast adenocarcinoma line predominantly expressing MCT4; host or cells: SK-Br-3; conditions: mean of at least three repeats (Example 32, marked *, two repeats), read-out: MCT4 lactate efflux pIC50 (SKBR3) (converted)
Method: Assay plates were lidded and incubated for 4 hours at 37° C. and 5% CO2.

| SMILES | IC50 [1] | IC50 [2] |
| --- | --- | --- |
| Cc1nc2nc(C)c(C[C@@H]3CCN(c4cnc(-c5ccc(CN6CCN(C)C[C@@H]6C)cc5)nc4)C3)c(C)n2n1 [Example 10, 6-(((R)-1-(2-(4-(((S)-2,4-dimethylpiperazin-1-yl)methyl)phenyl)pyrimidin-5-yl)pyrrolidin-3-yl)methyl)-2,5,7-trimethyl-[1,2,4]triazolo[1,5-a]pyrimidine] | 31.6 nM | 0.501 nM |
| Cc1nc2nc(C)c(O[C@@H]3CCN(c4cnc(-c5ccc(CN6CCOCC6)cc5)cn4)C3)c(C)n2n1 [Example 78, (R)-4-(4-(5-(3-((2,5,7-trimethyl-[1,2,4]triazolo[1,5-a]pyrimidin-6-yl)oxy)pyrrolidin-1-yl)pyrazin-2-yl)benzyl)morpholine] | 6.31 nM | 2.51 nM |
| COc1cc(CN2CCN(C)CC2)ccc1-c1ncc(N2CC[C@@H](Cc3c(C)nc4nc(C)nn4c3C)C2)cn1 [Example 12, (R)-6-((1-(2-(2-methoxy-4-((4-methylpiperazin-1-yl)methyl)phenyl)pyrimidin-5-yl)pyrrolidin-3-yl)methyl)-2,5,7-trimethyl-[1,2,4]triazolo[1,5-a]pyrimidine] |  | 3.98 nM |
| Cc1nc2nc(C)c(O[C@@H]3CCN(c4cnc(-c5ccc(CN6CCN(C)CC6)cc5)cn4)C3)c(C)n2n1 [Example 77, (R)-2,5,7-trimethyl-6-((1-(5-(4-((4-methylpiperazin-1-yl)methyl)phenyl)pyrazin-2-yl)pyrrolidin-3-yl)oxy)-[1,2,4]triazolo[1,5-a]pyrimidine] | 15.8 nM | 3.98 nM |
| Cc1nc2nc(C)c(C[C@@H]3CCN(c4cnc(-c5ccc(CN6CCOCC6)nc5)nc4)C3)c(C)n2n1 [Example 11, (R)-4-((5-(5-(3-((2,5,7-trimethyl-[1,2,4]triazolo[1,5-a]pyrimidin-6-yl)methyl)pyrrolidin-1-yl)pyrimidin-2-yl)pyridin-2-yl)methyl)morpholine] | 7.94 nM | 0.316 nM |
| Cc1nc2nc(C)c(C[C@@H]3CCN(c4cnc(-c5ccc(CN6C[C@@H](C)N(C)[C@@H](C)C6)cc5)cn4)C3)c(C)n2n1 [Example 32, 2,5,7-trimethyl-6-(((R)-1-(5-(4-(((3R,5S)-3,4,5-trimethylpiperazin-1-yl)methyl)phenyl)pyrazin-2-yl)pyrrolidin-3-yl)methyl)-[1,2,4]triazolo[1,5-a]pyrimidine] |  | 1.26 nM |
| Cc1nc2nc(C)c(C[C@@H]3CCN(c4cnc(-c5ccc(CN6C[C@@H](C)N[C@@H](C)C6)cc5)cn4)C3)c(C)n2n1 [Example 40, 6-(((R)-1-(5-(4-(((3R,5S)-3,5-dimethylpiperazin-1-yl)methyl)phenyl)pyrazin-2-yl)pyrrolidin-3-yl)methyl)-2,5,7-trimethyl-[1,2,4]triazolo[1,5-a]pyrimidine] | 63.1 nM | 1.26 nM |
| Cc1nc2nc(C)c(C[C@@H]3CCN(c4ccc(-c5cnc(CN6CCN(C)CC6)nc5)cc4)C3)c(C)n2n1 [Example 22, (R)-2,5,7-trimethyl-6-((1-(4-(2-((4-methylpiperazin-1-yl)methyl)pyrimidin-5-yl)phenyl)pyrrolidin-3-yl)methyl)-[1,2,4]triazolo[1,5-a]pyrimidine] |  | 1 nM |
| Cc1nc2nc(C)c(C[C@@H]3CCN(c4cnc(-c5ccc(CN6CCN(C)CC6)cn5)cn4)C3)c(C)n2n1 [Example 39, (R)-2,5,7-trimethyl-6-((1-(5-(5-((4-methylpiperazin-1-yl)methyl)pyridin-2-yl)pyrazin-2-yl)pyrrolidin-3-yl)methyl)-[1,2,4]triazolo[1,5-a]pyrimidine] |  | 2.51 nM |
| Cc1nc2nc(C)c(C[C@@H]3CCN(c4ccc(-c5cnc(CN6CCOCC6)nc5)cc4)C3)c(C)n2n1 [Example 28, (R)-4-((5-(4-(3-((2,5,7-trimethyl-[1,2,4]triazolo[1,5-a]pyrimidin-6-yl)methyl)pyrrolidin-1-yl)phenyl)pyrimidin-2-yl)methyl)morpholine] |  | 0.251 nM |
| Cc1nc2nc(C)c(C[C@@H]3CCN(c4cnc(-c5ccc(CN6CCN(CC(=O)N(C)C)CC6)cc5)nc4)C3)c(C)n2n1 [Example 15, (R)—N,N-dimethyl-2-(4-(4-(5-(3-((2,5,7-trimethyl-[1,2,4]triazolo[1,5-a]pyrimidin-6-yl)methyl)pyrrolidin-1-yl)pyrimidin-2-yl)benzyl)piperazin-1-yl)acetamide] |  | 1 nM |
| Cc1nc2nc(C)c(C[C@@H]3CCN(c4ccc(-c5ncc(CN6CCN(C)CC6)cn5)cc4)C3)c(C)n2n1 [Example 25, (R)-2,5,7-trimethyl-6-((1-(4-(5-((4-methylpiperazin-1-yl)methyl)pyrimidin-2-yl)phenyl)pyrrolidin-3-yl)methyl)-[1,2,4]triazolo[1,5-a]pyrimidine] |  | 0.794 nM |
| Cc1nc2nc(C)c(C[C@@H]3CCN(c4ccc(-c5ccc(CN6CCOCC6)nc5)cn4)C3)c(C)n2n1 [Example 1, (R)-4-((6′-(3-((2,5,7-trimethyl-[1,2,4]triazolo[1,5-a]pyrimidin-6-yl)methyl)pyrrolidin-1-yl)-[3,3′-bipyridin]-6-yl)methyl)morpholine] |  | 0.316 nM |
| Cc1nc2nc(C)c(C[C@@H]3CCN(c4ccc(-c5cnc(CN6CCOCC6)cn5)nc4)C3)c(C)n2n1 [Example 7, (R)-4-((5-(5-(3-((2,5,7-trimethyl-[1,2,4]triazolo[1,5-a]pyrimidin-6-yl)methyl)pyrrolidin-1-yl)pyridin-2-yl)pyrazin-2-yl)methyl)morpholine] |  | 0.316 nM |
| Cc1nc2nc(C)c(C[C@@H]3CCN(c4cnc(-c5ccc(CN6C[C@@H](C)N[C@@H](C)C6)cc5)nc4)C3)c(C)n2n1 [Example 14, 6-(((R)-1-(2-(4-(((3R,5S)-3,5-dimethylpiperazin-1-yl)methyl)phenyl)pyrimidin-5-yl)pyrrolidin-3-yl)methyl)-2,5,7-trimethyl-[1,2,4]triazolo[1,5-a]pyrimidine] |  | 2 nM |
| Cc1nc2nc(C)c(C[C@@H]3CCN(c4cnc(-c5ccc(CN6CCN(C)CC6)cc5C)nc4)C3)c(C)n2n1 [Example 13, (R)-2,5,7-trimethyl-6-((1-(2-(2-methyl-4-((4-methylpiperazin-1-yl)methyl)phenyl)pyrimidin-5-yl)pyrrolidin-3-yl)methyl)-[1,2,4]triazolo[1,5-a]pyrimidine] |  | 2.51 nM |
| COCCN1CCN(Cc2ccc(-c3ncc(N4CC[C@@H](Cc5c(C)nc6nc(C)nn6c5C)C4)cn3)cc2)CC1 [Example 18, (R)-6-((1-(2-(4-((4-(2-methoxyethyl)piperazin-1-yl)methyl)phenyl)pyrimidin-5-yl)pyrrolidin-3-yl)methyl)-2,5,7-trimethyl-[1,2,4]triazolo[1,5-a]pyrimidine] |  | 0.631 nM |

Results, then the molecule that gave them:

| IC50 [1] | IC50 [2] | SMILES |
| --- | --- | --- |
|  | 0.631 nM | Cc1nc2nc(C)c(C[C@@H]3CCN(c4cnc(-c5ccc(CN6CCC(CO)CC6)cc5)cn4)C3)c(C)n2n1 [Example 44, {1-[4-(5-{(3R)-3-[(2,5,7-trimethyl[1,2,4]triazolo[1,5-a]pyrimidin-6-yl)methyl]pyrrolidin-1-yl}pyrazin-2-yl)benzyl]piperidin-4-yl}methanol] |
|  | 0.2 nM | Cc1nc2nc(C)c(C[C@@H]3CCN(c4cnc(-c5ccc(CN6CCS(=O)(=O)CC6)cc5)cn4)C3)c(C)n2n1 [Example 45, 6-{[(3R)-1-(5-{4-[(1,1-dioxidothiomorpholin-4-yl)methyl]phenyl}pyrazin-2-yl)pyrrolidin-3-yl]methyl}-2,5,7-trimethyl[1,2,4]triazolo[1,5-a]pyrimidine] |
|  | 0.316 nM | CC(=O)N1CCCN(Cc2ccc(-c3cnc(N4CC[C@@H](Cc5c(C)nc6nc(C)nn6c5C)C4)cn3)cc2)CC1 [Example 79, 1-[4-[[4-[5-[(3R)-3-[(2,5,7-trimethyl-[1,2,4]triazolo[1,5-a]pyrimidin-6-yl)methyl]pyrrolidin-1-yl]pyrazin-2-yl]phenyl]methyl]-1,4-diazepan-1-yl]ethanone] |
|  | 0.794 nM | Cc1nc2nc(C)c(C[C@@H]3CCN(c4cnc(-c5ccc(CN6CCCN(C)CC6)cc5)cn4)C3)c(C)n2n1 [Example 83, (R)-2,5,7-trimethyl-6-((1-(5-(4-((4-methyl-1,4-diazepan-1-yl)methyl)phenyl)pyrazin-2-yl)pyrrolidin-3-yl)methyl)-[1,2,4]triazolo[1,5-a]pyrimidine] |
|  | 0.2 nM | Cc1nc2nc(C)c(C[C@@H]3CCN(c4cnc(-c5ccc(CN6CCC(S(C)(=O)=O)CC6)cc5)cn4)C3)c(C)n2n1 [Example 46, 2,5,7-trimethyl-6-({(3R)-1-[5-(4-{[4-(methylsulfonyl)piperidin-1-yl]methyl}phenyl)pyrazin-2-yl]pyrrolidin-3-yl}methyl)[1,2,4]triazolo[1,5-a]pyrimidine] |
|  | 0.251 nM | CC(=O)N1CCN(Cc2ccc(-c3ncc(N4CC[C@@H](Cc5c(C)nc6nc(C)nn6c5C)C4)cn3)cc2)CC1 [Example 17, (R)-1-(4-(4-(5-(3-((2,5,7-trimethyl-[1,2,4]triazolo[1,5-a]pyrimidin-6-yl)methyl)pyrrolidin-1-yl)pyrimidin-2-yl)benzyl)piperazin-1-yl)ethanone] |
|  | 2.51 nM | Cc1nc2nc(C)c(C[C@@H]3CCN(c4cnc(-c5ccc(CN6CCN(C)[C@H](C)C6)cc5)cn4)C3)c(C)n2n1 [Example 33, 6-(((R)-1-(5-(4-(((R)-3,4-dimethylpiperazin-1-yl)methyl)phenyl)pyrazin-2-yl)pyrrolidin-3-yl)methyl)-2,5,7-trimethyl-[1,2,4]triazolo[1,5-a]pyrimidine] |
